Experimental data from paper PMC11062899, “De novo development of small cyclic peptides that are orally bioavailable” (Nature Chemical Biology, 2023).
Values joined by “and” are separate entries in the source; they are usually repeats but may differ in a detail not shown here. Equal entries are not always repeated.

Assays:
rat α-thrombin = biological target: T1, rat α-thrombin (Rattus norvegicus, UniProt P18292); test: Protease inhibition, Ki for rat α-thrombin (fluorogenic substrate Z-Gly-Gly-Arg-AMC); assay type: biochemical; conditions: replicates R1-R3
T1 construct: rat α-thrombin (Molecular Innovations) were used at final concentrations of 2 nM and 3 nM; purchased Molecular Innovations
How it was run: (§1)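 Inhibition was measured as AMC fluorescence from 50 μM substrate, monitored for 30 min at 25 °C, relative to a peptide-free control. Human and rat enzymes were present at 2 nM and 3 nM final, respectively, in 50 mM Tris-HCl pH 7.4, 150 mM NaCl, 10 mM MgCl2, 1 mM CaCl2. Ki derives from fitted IC50 via Cheng–Prusoff.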

porcine pepsin = biological target: T2, porcine pepsin (Sus scrofa, UniProt P00791); test: Peptide stability in simulated gastric fluid (SGF); assay type: in vitro ADME; conditions: for SGF stability, Residual peptide Average / SGF stability, Residual peptide: after 8 h vs 0 h (TIC); for SGF stability, Residual peptide Average: average of R1-R3; for SGF stability, Residual peptide: single replicates R1-R3; for remaining at 8 h: simulated gi fluid, 37 °C, pH 1.2, read-out: Proteolytic stability: SGF (8 h) % remaining
T2 construct: 0.32 g of porcine pepsin (Sigma-Aldrich, P7125) was dissolved under gentle agitation; purchased Sigma-Aldrich P7125
T2 sequence (P00791 60-385): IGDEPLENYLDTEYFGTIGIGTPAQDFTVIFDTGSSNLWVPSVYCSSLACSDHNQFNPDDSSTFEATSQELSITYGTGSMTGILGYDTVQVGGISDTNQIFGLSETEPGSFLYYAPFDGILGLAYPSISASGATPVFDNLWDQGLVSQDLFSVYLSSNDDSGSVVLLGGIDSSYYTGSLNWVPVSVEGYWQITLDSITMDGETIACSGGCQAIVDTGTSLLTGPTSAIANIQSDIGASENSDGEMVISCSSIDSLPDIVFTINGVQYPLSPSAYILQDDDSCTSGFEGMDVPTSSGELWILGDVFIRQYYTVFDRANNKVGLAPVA
How it was run: (§2)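 Peptide from a 1 mM DMSO stock was added to fluid pre-warmed at 37 °C. SGF was pH 1.2 NaCl with porcine pepsin (0.32 g per 100 ml), and SIF was pH 6.8 potassium phosphate with porcine pancreatin (1 g per 100 ml). Supernatant peptide was quantified by LC–MS, with residual expressed as T1/T0.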

human α-thrombin = human α-thrombin (Homo sapiens, UniProt P00734); test: Protease inhibition, Ki for human α-thrombin (fluorogenic substrate Z-Gly-Gly-Arg-AMC); assay type: biochemical; conditions: replicates R1-R3
How it was run: as §1

[1] = Peptide stability in simulated intestinal fluid (SIF); assay type: in vitro ADME, porcine; conditions: simulated gi fluid; 8 h, 37 °C, pH 6.8; read-out: Proteolytic stability: SIF (8 h) % remaining
How it was run: as §2

porcine pancreatin = test: as above; assay type: in vitro ADME; conditions: after 8 h vs 0 h (TIC); for SIF stability, Residual peptide Average: average of R1-R3
How it was run: as §2

[2] = Metabolic stability in rat liver microsomes (RLMs); conditions: rat, microsomes
[3] = Passive artificial membrane permeability (PAMPA); conditions: for PAMPA permeability: % permeability: 50 μM, 12–18 h, acceptor concentration relative to equilibrium; for Papp at 50 μM / Permeability% Average / Permeability% R1 / Permeability% R3: PAMPA; for Papp at 50 μM: pH 7.4; for Permeability% Average: average of R1-R3; for Permeability% R1: replicate R1; for Permeability% R1 / Permeability% R3: TIC of top well sample relative to sample at theoretical equilibrium; for Permeability% R3: replicate R3
[4] = peptide 1.33E+02 uM, slope of proteolytic substrate cleavage over time
[5] = CL (ul/min/mg protein) R1, RLM CL, replicate R1
[6] = CL (ul/min/mg protein) R2, RLM CL, replicate R2
[7] = CL (ul/min/mg protein) R3, RLM CL, replicate R3
[8] = Half Life (min) R1, RLM metabolic stability, replicate R1, 0-60 min
[9] = Half Life (min) R2, RLM metabolic stability, replicate R2, 0-60 min
[10] = Half Life (min) R3, RLM metabolic stability, replicate R3, 0-60 min
[11] = Metabolic stability: RLM CL (ul/min/mg), RLMs, mean and SD, three measurements

SMILES: O=C(N[C@H]1CSCc2cccc(n2)CSCCNC(=O)[C@H](Cc2c[nH]cn2)NC(=O)C2(CCCC2)NC1=O)c1ccc(Cl)s1 [compound 29]
- Rat alpha thrombin inhibition, slope normalized to DMSO (rat α-thrombin; [4]): 11.0 and 10.6 and 9.7
- Rat alpha thrombin inhibition, slope normalized to DMSO (rat α-thrombin; peptide 1.67E+01 uM): 45.8 and 45.5 and 45.1
- Rat alpha thrombin inhibition, slope normalized to DMSO (rat α-thrombin; peptide 2.08E+00 uM): 86.8 and 87.3 and 87.0
- Rat alpha thrombin inhibition, slope normalized to DMSO (rat α-thrombin; peptide 3.33E+01 uM): 28.5 and 28.7 and 27.9
- Rat alpha thrombin inhibition, slope normalized to DMSO (rat α-thrombin; peptide 4.17E+00 uM): 77.5 and 87.0 and 76.0
- Rat alpha thrombin inhibition, slope normalized to DMSO (rat α-thrombin; peptide 6.67E+01 uM): 19.6 and 18.1 and 18.5
- Rat alpha thrombin inhibition, slope normalized to DMSO (rat α-thrombin; peptide 8.33E+00 uM): 63.7 and 62.1 and 64.2
- SGF stability, Residual peptide Average (porcine pepsin): 100.77
- SGF stability, Residual peptide (porcine pepsin): 105.91 and 102.30 and 94.11
- remaining at 8 h (porcine pepsin): 101 ± 8%
- Human alpha thrombin inhibition, slope normalized to DMSO (human α-thrombin; peptide 1.02E-03 uM): 85.3 and 95.8 and 95.4
- Human alpha thrombin inhibition, slope normalized to DMSO (human α-thrombin; peptide 1.04E+00 uM): 95.4 and 93.0 and 98.3
- Human alpha thrombin inhibition, slope normalized to DMSO (human α-thrombin; peptide 1.27E-04 uM): 99.0 and 98.5 and 95.5
- Human alpha thrombin inhibition, slope normalized to DMSO (human α-thrombin; peptide 1.30E-01 uM): 95.8 and 97.3 and 101.8
- Human alpha thrombin inhibition, slope normalized to DMSO (human α-thrombin; [4]): 27.0 and 31.2 and 38.6
- Human alpha thrombin inhibition, slope normalized to DMSO (human α-thrombin; peptide 1.63E-02 uM): 73.4 and 96.6 and 101.4
- Human alpha thrombin inhibition, slope normalized to DMSO (human α-thrombin; peptide 1.67E+01 uM): 71.8 and 71.9 and 74.8
- Human alpha thrombin inhibition, slope normalized to DMSO (human α-thrombin; peptide 2.03E-03 uM): 97.6 and 95.9 and 99.5
- Human alpha thrombin inhibition, slope normalized to DMSO (human α-thrombin; peptide 2.08E+00 uM): 93.5 and 84.6 and 95.9
- Human alpha thrombin inhibition, slope normalized to DMSO (human α-thrombin; peptide 2.54E-04 uM): 96.0 and 96.2 and 102.6
- Human alpha thrombin inhibition, slope normalized to DMSO (human α-thrombin; peptide 2.60E-01 uM): 94.7 and 95.0 and 96.9
- Human alpha thrombin inhibition, slope normalized to DMSO (human α-thrombin; peptide 3.18E-05 uM): 99.1 and 98.5 and 101.4
- Human alpha thrombin inhibition, slope normalized to DMSO (human α-thrombin; peptide 3.26E-02 uM): 99.8 and 95.1 and 95.9
- Human alpha thrombin inhibition, slope normalized to DMSO (human α-thrombin; peptide 3.33E+01 uM): 58.8 and 60.9 and 67.1
- Human alpha thrombin inhibition, slope normalized to DMSO (human α-thrombin; peptide 4.07E-03 uM): 99.1 and 95.8 and 99.3
- Human alpha thrombin inhibition, slope normalized to DMSO (human α-thrombin; peptide 4.17E+00 uM): 86.3 and 86.6 and 97.3
- Human alpha thrombin inhibition, slope normalized to DMSO (human α-thrombin; peptide 5.09E-04 uM): 101.5 and 95.7 and 97.4
- Human alpha thrombin inhibition, slope normalized to DMSO (human α-thrombin; peptide 5.21E-01 uM): 92.8 and 93.8 and 98.4
- Human alpha thrombin inhibition, slope normalized to DMSO (human α-thrombin; peptide 6.36E-05 uM): 106.0 and 98.0 and 105.2
- Human alpha thrombin inhibition, slope normalized to DMSO (human α-thrombin; peptide 6.51E-02 uM): 96.1 and 98.8 and 99.3
- Human alpha thrombin inhibition, slope normalized to DMSO (human α-thrombin; peptide 6.67E+01 uM): 48.6 and 47.5 and 55.0
- Human alpha thrombin inhibition, slope normalized to DMSO (human α-thrombin; peptide 8.14E-03 uM): 95.7 and 98.2 and 99.1
- Human alpha thrombin inhibition, slope normalized to DMSO (human α-thrombin; peptide 8.33E+00 uM): 83.7 and 83.2 and 97.0
- remaining at 8 h [1]: 92 ± 16%
- SIF stability, Residual peptide Average (porcine pancreatin): 92.07
- SIF stability, Residual peptide (porcine pancreatin; single replicates R1-R3): 101.03 and 73.69 and 101.48
- microsomal CLint [2, 5]: 10.5 µL/min/mg
- microsomal CLint [2, 6]: 5.63 µL/min/mg
- microsomal CLint [2, 7]: 8.11 µL/min/mg
- half-life [2, 8]: > 60 min
- half-life [2, 9]: > 60 min
- half-life [2, 10]: > 60 min
- microsomal CLint [2, 11]: 8.1 ± 2 µL/min/mg
- PAMPA permeability: % permeability [3]: 0.16 ± 0.08%
- Papp at 50 μM [3]: 0.00933 ×10⁻⁶ cm/s
- Permeability% Average [3]: 0.157%
- Permeability% R1 [3]: 0.22%
- Permeability% R3 [3]: 0.18%

SMILES: C[C@@H]1NC(=O)[C@@H](NC(=O)c2ccc(Cl)s2)CSCc2cccc(n2)CSCCNC(=O)[C@H]2CCCN(C2)C1=O [compound 30]
- Rat alpha thrombin inhibition, slope normalized to DMSO (rat α-thrombin; [4]): 3.2 and 3.1 and 10.4
- Rat alpha thrombin inhibition, slope normalized to DMSO (rat α-thrombin; peptide 1.67E+01 uM): 16.1 and 15.2 and 20.3
- Rat alpha thrombin inhibition, slope normalized to DMSO (rat α-thrombin; peptide 2.08E+00 uM): 58.5 and 59.8 and 48.9
- Rat alpha thrombin inhibition, slope normalized to DMSO (rat α-thrombin; peptide 3.33E+01 uM): 8.9 (2×) and 15.3
- Rat alpha thrombin inhibition, slope normalized to DMSO (rat α-thrombin; peptide 4.17E+00 uM): 40.8 and 42.9 and 35.9
- Rat alpha thrombin inhibition, slope normalized to DMSO (rat α-thrombin; peptide 6.67E+01 uM): 5.0 and 4.9 and 12.1
- Rat alpha thrombin inhibition, slope normalized to DMSO (rat α-thrombin; peptide 8.33E+00 uM): 24.7 and 27.2 and 32.3
- SGF stability, Residual peptide Average (porcine pepsin): 90.24
- SGF stability, Residual peptide (porcine pepsin): 101.78 and 81.27 and 87.66
- remaining at 8 h (porcine pepsin): 90 ± 10%
- Human alpha thrombin inhibition, slope normalized to DMSO (human α-thrombin; peptide 1.02E-03 uM): 97.2 and 97.6 and 106.2
- Human alpha thrombin inhibition, slope normalized to DMSO (human α-thrombin; peptide 1.04E+00 uM): 103.4 and 89.3 and 97.4
- Human alpha thrombin inhibition, slope normalized to DMSO (human α-thrombin; peptide 1.27E-04 uM): 101.8 and 96.4 and 101.4
- Human alpha thrombin inhibition, slope normalized to DMSO (human α-thrombin; peptide 1.30E-01 uM): 98.9 and 98.3 and 91.7
- Human alpha thrombin inhibition, slope normalized to DMSO (human α-thrombin; [4]): 9.7 and 9.3 and 8.4
- Human alpha thrombin inhibition, slope normalized to DMSO (human α-thrombin; peptide 1.63E-02 uM): 113.9 and 97.8 and 107.6
- Human alpha thrombin inhibition, slope normalized to DMSO (human α-thrombin; peptide 1.67E+01 uM): 44.4 and 39.7 and 38.9
- Human alpha thrombin inhibition, slope normalized to DMSO (human α-thrombin; peptide 2.03E-03 uM): 93.3 and 95.3 and 103.2
- Human alpha thrombin inhibition, slope normalized to DMSO (human α-thrombin; peptide 2.08E+00 uM): 83.8 and 81.0 and 85.8
- Human alpha thrombin inhibition, slope normalized to DMSO (human α-thrombin; peptide 2.54E-04 uM): 101.0 and 97.7 and 100.6
- Human alpha thrombin inhibition, slope normalized to DMSO (human α-thrombin; peptide 2.60E-01 uM): 90.3 and 93.2 and 100.5
- Human alpha thrombin inhibition, slope normalized to DMSO (human α-thrombin; peptide 3.18E-05 uM): 99.8 (2×) and 101.6
- Human alpha thrombin inhibition, slope normalized to DMSO (human α-thrombin; peptide 3.26E-02 uM): 100.2 and 97.8 and 102.0
- Human alpha thrombin inhibition, slope normalized to DMSO (human α-thrombin; peptide 3.33E+01 uM): 26.4 and 25.5 and 27.5
- Human alpha thrombin inhibition, slope normalized to DMSO (human α-thrombin; peptide 4.07E-03 uM): 95.7 and 98.6 and 101.8
- Human alpha thrombin inhibition, slope normalized to DMSO (human α-thrombin; peptide 4.17E+00 uM): 69.5 and 72.8 and 72.6
- Human alpha thrombin inhibition, slope normalized to DMSO (human α-thrombin; peptide 5.09E-04 uM): 102.0 and 99.0 and 102.1
- Human alpha thrombin inhibition, slope normalized to DMSO (human α-thrombin; peptide 5.21E-01 uM): 99.3 and 95.3 and 96.7
- Human alpha thrombin inhibition, slope normalized to DMSO (human α-thrombin; peptide 6.36E-05 uM): 99.5 and 97.8 and 101.1
- Human alpha thrombin inhibition, slope normalized to DMSO (human α-thrombin; peptide 6.51E-02 uM): 101.0 and 91.1 and 103.2
- Human alpha thrombin inhibition, slope normalized to DMSO (human α-thrombin; peptide 6.67E+01 uM): 19.9 and 15.0 and 20.8
- Human alpha thrombin inhibition, slope normalized to DMSO (human α-thrombin; peptide 8.14E-03 uM): 100.5 and 116.6 and 101.1
- Human alpha thrombin inhibition, slope normalized to DMSO (human α-thrombin; peptide 8.33E+00 uM): 63.9 and 57.2 and 56.3
- remaining at 8 h [1]: 98 ± 11%
- SIF stability, Residual peptide Average (porcine pancreatin): 97.68
- microsomal CLint [2, 5]: 79.9 µL/min/mg
- microsomal CLint [2, 6]: 59.7 µL/min/mg
- microsomal CLint [2, 7]: 75.2 µL/min/mg
- half-life [2, 8]: 17.3 min
- half-life [2, 9]: 23.2 min
- half-life [2, 10]: 18.4 min
- half-life ([2]; Metabolic stability: Half life T1/2 (min), RLMs, mean and SD, three measurements): 19.7 ± 2.5 min
- microsomal CLint [2, 11]: 72 ± 9 µL/min/mg
- PAMPA permeability: % permeability [3]: 27 ± 1%
- Papp at 50 μM [3]: 2.14 ×10⁻⁶ cm/s
- Permeability% Average [3]: 27.4%
- Permeability% R1 [3]: 28.09%
- Permeability% R3 [3]: 26.42%
